Measurements from patent publication US20250101065A1, “REVERSE PEPTIDES FROM CORONAVIRUS FOR IMMUNOGENIC PURPOSES” (Emergex Vaccines Holding Limited, priority 2021, published 2025).
No end group written: not given here.

How the values were obtained:
human PBMCs = assay: IFN-gamma ELISPOT after stimulation of PBMCs with negative sense SARS-COV-2 peptides; format: cell-based
CD3+ T cells of PBMCs = assay: Flow cytometry analysis of T cell surface markers after peptide stimulation of PBMCs; format: cell-based, human
Experimental: At day 7 post-stimulation, remaining PBMCs were resuspended in flow cytometry buffer (PBS+1% BSA+2 mM EDTA) at a concentration of 1×10^6 cells/mL, and blocked for at least 10 minutes. Cells were then aliquoted in a 96-well plate, centrifuged (5 mins/[…]/300×g), and resuspended in 45 μL buffer. Live/Dead stain was added (Fixable Near IR) at 1 μL in 1000 μL, and cells incubated at […] for 10 minutes in the dark. 120 μL buffer was added, samples were centrifuged for 5 mins, supernatants discarded and wash repeated with 200 μL buffer. Cells were then resuspended in buffer containing antibodies to T cell markers at the appropriate concentration (final staining volume 50 μL) and incubated for at least 30 minutes in the dark at […]
120 μL buffer was added to cell samples, centrifuged for 5 mins, supernatants discarded. This wash step was then repeated. Compensation beads were incubated with the individual antibodies at the same concentration. Voltages on the Attune flow cytometer were adjusted using antibody-stained compensation beads, as well as unstained and NIR-stained cells.
Acquisition was set to acquire at least 150,000 events on CD3 gated cells.
PBMCs were stained with a panel of antibodies (as listed in the previous section) against cell surface markers to characterize different T cell populations, such as naïve T cells (A), Central memory T cells (B), Effector memory T cells (C) and (D), and resident memory T cells (E). In addition, activation markers were also analysed (F) to (I). The percentage of positive cells gated on CD3+T cell populations were plotted.

[1] = PBMCs from EVB00028, day 7 post-stimulation

VFTLHSRTSF [SEQ ID NO: 12]
IFN-gamma ELISPOT reactivity (human PBMCs; donors EVB00028 and EVB00031): reacted strongly

VALLTCQTIGLCN [SEQ ID NO: 11]
Activation of CD3+ cells (upregulation of CD69, CD38, OX40/CD25, PDL1/CD25) (CD3+ T cells of PBMCs; [1]): induced activation
IFN-gamma ELISPOT reactivity (human PBMCs; donor EVB00033): reacted strongly

LYVALLVALLTCQ [SEQ ID NO: 6, LYVALLVALLTCQ]
Activation of CD3+ cells (upregulation of CD69, CD38, OX40/CD25, PDL1/CD25) (CD3+ T cells of PBMCs; [1]): induced activation
Activation of CD3+ cells (upregulation of CD69, CD38, OX40/CD25, PDL1/CD25) (CD3+ T cells of PBMCs; PBMCs from EVB00033, day 7 post-stimulation): similarly activated
IFN-gamma ELISPOT reactivity (human PBMCs; all three donors (EVB00028, EVB00031, EVB00033), 7 days stimulation, 24 h re-stimulation): strong reactivity
